Patent US4839344A, “Polypeptide compounds having growth hormone releasing activity” (Eastman Kodak Company, priority 1987, dated 1989)
“And” between values parts separate entries of the source, which are not always exact repeats. Equal entries are not always repeated. Square brackets hold non-standard residues; d marks the D form. Ends that are not written are not given here.

Tested on: growth hormone (GH) release
Assay: In Vivo GH Release in Rats (serum GH by RIA)
Design: species or system immature female Sprague-Dawley rats
Details: rat serum, i.v., mean ± SEM, six rats
[1] = total dose 10 μg, sacrificed 10 minutes after final injection

| Substance | GH Released by Compound in Column A [1] | GH Released by Compound in Column A (total dose 20 (ng as printed), sacrificed 30 minutes after final injection) [ng/mL] |
| --- | --- | --- |
| AC[dW]AW[dF]KC-NH2 (cysteine pairing not given here) [Compound 9308] | 10 ± 1 ng/mL | – |
| CAH[dW]AW[dF]KC-NH2 (cysteine pairing not given here) [Compound 8758] | 37 ± 8 ng/mL and 26 ± 9 ng/mL | 52 ± 7 |
